Reference: US6583175B2, “Alkylxanthates and use of alkylxanthates in the integrated pest management” (Council of Scientific & Industrial Research, priority 2001, dated 2003)
Converted amounts (≈) assume the structure as drawn. Where two headings read alike, the source gives them in different places.

Tests used:
[1] = system: lice; conditions: in vivo; cited from earlier work
[2] = in vivo; conditions: Artemia salina (brine shrimp), other: exposure in artificial seawater in the sample vial
[3] = system: Aedes aegypti mosquito; conditions: various aquatic stages of Aedes aegypti; cited from earlier work
[4] = system: Spodoptera litura; assay: Antifeedant activity against late third instar of Spodoptera litura (leaf disk, oral feeding); type: in vivo; conditions: for Concentration required for 50% leaf protection EC50 ± S.E.: late third instar
[5] = system: Spodoptera litura; type: in vivo; conditions: topical
[6] = system: Brine shrimp, Artemia salina; conditions: in vivo
[7] = system: Aedes aegypti; type: in vivo; conditions: IV instar larvae, 24 hours

Q: For `S=C(OCc1ccccc1)SCCSC(=S)OCc1ccccc1` [Compound 5, Ethylene Bis(benzylxanthate)], which “insecticidal activity against lice” value [1] is on record?
A: Its value is “moderate insecticidal activity”.

Q: Which LC50 at 24 h [2] does the source give for `CC(C)COC(=S)SCCSC(=S)OCC(C)C` [Ethylene bis (isobutylxanthate), Ethylene Bis (isobutylxanthate)] here?
A: The LC50 at 24 h was 25.8 ± 2.9 µg/mL (≈ 78.9 µM).

Q: And the “larvicidal and insect growth regulatory activity” value [3]?
A: Its value is “larvicidal and insect growth regulatory activity in dose dependent mannar”.

Q: And the “A.I. (Anti-feedent Index)” value ([4]; 20 μg/sq. cm.)?
A: Its value is 8.14.

Q: What about the “Percent leaf consumption 12 hr” value ([4]; 20 μg/sq. cm.) of the same compound?
A: Its value is 60.2%.

Q: And the “Percent leaf consumption 24 hr” value ([4]; 20 μg/sq. cm.)?
A: Its value is 80.7%.

Q: What about the “A.I. (Anti-feedent Index)” value ([4]; 35 μg/sq. cm.) of the same compound?
A: Its value is 20.48.

Q: What about the “Percent leaf consumption 12 hr” value ([4]; 35 μg/sq. cm.) of the same compound?
A: Its value is 36.1%.

Q: What about the “Percent leaf consumption 24 hr” value ([4]; 35 μg/sq. cm.) of the same compound?
A: The value was 62.7%.

Q: And the “A.I. (Anti-feedent Index)” value ([4]; 50 μg/sq. cm.)?
A: The value was 34.85.

Q: What about the “Percent leaf consumption 12 hr” value ([4]; 50 μg/sq. cm.) of the same compound?
A: The value was 22.4%.

Q: What about the “Percent leaf consumption 24 hr” value ([4]; 50 μg/sq. cm.) of the same compound?
A: The value was 45.9%.

Q: And the “A.I. (Anti-feedent Index)” value ([4]; 65 μg/sq. cm.)?
A: Its value is 58.07.

Q: What about the “Percent leaf consumption 12 hr” value ([4]; 65 μg/sq. cm.) of the same compound?
A: The value was 9.3%.

Q: What about the “Percent leaf consumption 24 hr” value ([4]; 65 μg/sq. cm.) of the same compound?
A: The value was 25.2%.

Q: What about the “Concentration required for 50% leaf protection EC50 ± S.E.” value [4] of the same compound?
A: The value was 42.46 ± 5.76 μg/cm^2.

Q: Which “Adult emergence: Abnormal adults” value ([5]; 5 μg/Insect) does the source give for `S=C(OCC1CCCO1)SCSC(=S)OCC1CCCO1` (stereo not drawn) [methylene Bis (tetrahydrofurfuryl xanthate)] here?
A: Its value is 22.

Q: And the “Adult emergence: Intermediates” value ([5]; 5 μg/Insect)?
A: Its value is 0.

Q: And the “Adult emergence: Non-emergence” value ([5]; 5 μg/Insect)?
A: The value was 3.

Q: And the “Adult emergence: Normal adults” value ([5]; 5 μg/Insect)?
A: The value was 37.

Q: What about the “Larval mortality (%)” value ([5]; 5 μg/Insect) of the same compound?
A: Its value is 36%.

Q: What about the “Pupal Formation: Abnormal pupa” value ([5]; 5 μg/Insect) of the same compound?
A: The value was 6.

Q: And the “Pupal Formation: Normal pupa” value ([5]; 5 μg/Insect)?
A: The value was 58.

Q: And the “Pupal Formation: Pupal Mortality” value ([5]; 5 μg/Insect)?
A: The value was 5.

Q: What about the “Adult emergence: Abnormal adults” value ([5]; 10 μg/Insect) of the same compound?
A: Its value is 19.

Q: And the “Adult emergence: Intermediates” value ([5]; 10 μg/Insect)?
A: The value was 1.

Q: And the “Adult emergence: Non-emergence” value ([5]; 10 μg/Insect)?
A: Its value is 2.

Q: And the “Adult emergence: Normal adults” value ([5]; 10 μg/Insect)?
A: The value was 28.

Q: What about the “Larval mortality (%)” value ([5]; 10 μg/Insect) of the same compound?
A: The value was 46%.

Q: What about the “Pupal Formation: Abnormal pupa” value ([5]; 10 μg/Insect) of the same compound?
A: Its value is 10.

Q: And the “Pupal Formation: Normal pupa” value ([5]; 10 μg/Insect)?
A: Its value is 44.

Q: And the “Pupal Formation: Pupal Mortality” value ([5]; 10 μg/Insect)?
A: The value was 6.

Q: What about the “Adult emergence: Abnormal adults” value ([5]; 20 μg/Insect) of the same compound?
A: Its value is 17.

Q: What about the “Adult emergence: Intermediates” value ([5]; 20 μg/Insect) of the same compound?
A: The value was 21.

Q: And the “Adult emergence: Non-emergence” value ([5]; 20 μg/Insect)?
A: Its value is 2.

Q: And the “Adult emergence: Normal adults” value ([5]; 20 μg/Insect)?
A: Its value is 15.

Q: What about the “Larval mortality (%)” value ([5]; 20 μg/Insect) of the same compound?
A: The value was 59%.

Q: And the “Pupal Formation: Abnormal pupa” value ([5]; 20 μg/Insect)?
A: Its value is 16.

Q: What about the “Pupal Formation: Normal pupa” value ([5]; 20 μg/Insect) of the same compound?
A: The value was 25.

Q: What about the “Pupal Formation: Pupal Mortality” value ([5]; 20 μg/Insect) of the same compound?
A: Its value is 7.

Q: And the “Adult emergence: Abnormal adults” value ([5]; 35 μg/Insect)?
A: The value was 11.

Q: And the “Adult emergence: Intermediates” value ([5]; 35 μg/Insect)?
A: Its value is 2.

Q: And the “Adult emergence: Non-emergence” value ([5]; 35 μg/Insect)?
A: The value was 3.

Q: And the “Adult emergence: Normal adults” value ([5]; 35 μg/Insect)?
A: The value was 9.

Q: And the “Larval mortality (%)” value ([5]; 35 μg/Insect)?
A: Its value is 71%.

Q: What about the “Pupal Formation: Abnormal pupa” value ([5]; 35 μg/Insect) of the same compound?
A: Its value is 10.

Q: And the “Pupal Formation: Normal pupa” value ([5]; 35 μg/Insect)?
A: Its value is 19.

Q: What about the “Pupal Formation: Pupal Mortality” value ([5]; 35 μg/Insect) of the same compound?
A: The value was 7.

Q: What about the “Adult emergence: Abnormal adults” value ([5]; 50 μg/Insect) of the same compound?
A: The value was 9.

Q: What about the “Adult emergence: Intermediates” value ([5]; 50 μg/Insect) of the same compound?
A: The value was 3.

Q: What about the “Adult emergence: Non-emergence” value ([5]; 50 μg/Insect) of the same compound?
A: Its value is 1.

Q: What about the “Adult emergence: Normal adults” value ([5]; 50 μg/Insect) of the same compound?
A: The value was 4.

Q: What about the “Larval mortality (%)” value ([5]; 50 μg/Insect) of the same compound?
A: Its value is 80%.

Q: And the “Pupal Formation: Abnormal pupa” value ([5]; 50 μg/Insect)?
A: Its value is 13.

Q: What about the “Pupal Formation: Normal pupa” value ([5]; 50 μg/Insect) of the same compound?
A: The value was 7.

Q: And the “Pupal Formation: Pupal Mortality” value ([5]; 50 μg/Insect)?
A: The value was 4.

Q: What about the “Adult emergence: Abnormal adults” value ([5]; 75 μg/Insect) of the same compound?
A: Its value is 2.

Q: And the “Adult emergence: Intermediates” value ([5]; 75 μg/Insect)?
A: The value was 0.

Q: What about the “Adult emergence: Non-emergence” value ([5]; 75 μg/Insect) of the same compound?
A: The value was 2.

Q: What about the “Adult emergence: Normal adults” value ([5]; 75 μg/Insect) of the same compound?
A: The value was 2.

Q: What about the “Larval mortality (%)” value ([5]; 75 μg/Insect) of the same compound?
A: The value was 91%.

Q: And the “Pupal Formation: Abnormal pupa” value ([5]; 75 μg/Insect)?
A: The value was 7.

Q: And the “Pupal Formation: Normal pupa” value ([5]; 75 μg/Insect)?
A: The value was 2.

Q: What about the “Pupal Formation: Pupal Mortality” value ([5]; 75 μg/Insect) of the same compound?
A: Its value is 5.

Q: And the “Adult emergence: Abnormal adults” value ([5]; 100 μg/Insect)?
A: Its value is 1.

Q: And the “Adult emergence: Intermediates” value ([5]; 100 μg/Insect)?
A: The value was 0.

Q: What about the “Adult emergence: Non-emergence” value ([5]; 100 μg/Insect) of the same compound?
A: The value was 0.

Q: What about the “Adult emergence: Normal adults” value ([5]; 100 μg/Insect) of the same compound?
A: Its value is 0.

Q: And the “Larval mortality (%)” value ([5]; 100 μg/Insect)?
A: The value was 98%.

Q: And the “Pupal Formation: Abnormal pupa” value ([5]; 100 μg/Insect)?
A: Its value is 2.

Q: What about the “Pupal Formation: Normal pupa” value ([5]; 100 μg/Insect) of the same compound?
A: Its value is 0.

Q: And the “Pupal Formation: Pupal Mortality” value ([5]; 100 μg/Insect)?
A: The value was 1.

Q: What about the “LC50 ± S.E.” value [6] of the same compound?
A: Its value is 5.63 ± 0.62 mg/L (≈ 15.3 µM).

Q: And the “LC50 ± S.E.” value [7]?
A: The value was 3.77 ± 0.59 mg/L (≈ 10.2 µM).

Q: And the “A.I. (Anti-feedent Index)” value ([4]; 12.5 μg/sq. cm.)?
A: The value was 8.20.

Q: And the “Percent leaf consumption 12 hr” value ([4]; 12.5 μg/sq. cm.)?
A: The value was 48.6%.

Q: What about the “Percent leaf consumption 24 hr” value ([4]; 12.5 μg/sq. cm.) of the same compound?
A: Its value is 80.6%.

Q: What about the “A.I. (Anti-feedent Index)” value ([4]; 25 μg/sq. cm.) of the same compound?
A: Its value is 22.42.

Q: What about the “Percent leaf consumption 12 hr” value ([4]; 25 μg/sq. cm.) of the same compound?
A: The value was 31.5%.

Q: And the “Percent leaf consumption 24 hr” value ([4]; 25 μg/sq. cm.)?
A: Its value is 60.2%.

Q: And the “A.I. (Anti-feedent Index)” value ([4]; 35 μg/sq. cm.)?
A: The value was 33.52.

Q: What about the “Percent leaf consumption 12 hr” value ([4]; 35 μg/sq. cm.) of the same compound?
A: The value was 25.9%.

Q: What about the “Percent leaf consumption 24 hr” value ([4]; 35 μg/sq. cm.) of the same compound?
A: The value was 47.3%.

Q: And the “A.I. (Anti-feedent Index)” value ([4]; 50 μg/sq. cm.)?
A: The value was 35.23.

Q: What about the “Percent leaf consumption 12 hr” value ([4]; 50 μg/sq. cm.) of the same compound?
A: The value was 22.1%.

Q: What about the “Percent leaf consumption 24 hr” value ([4]; 50 μg/sq. cm.) of the same compound?
A: The value was 45.5%.

Q: And the “Concentration required for 50% leaf protection EC50 ± S.E.” value [4]?
A: Its value is 37.21 ± 9.67 μg/cm^2.
